# In patent US12692253B2, “Antimicrobial compounds and methods” (Curza Global, LLC, priority 2019, dated 2026):
# Like-named read-outs stand apart in the source and are kept apart here.
# Columns and labels:
# [1] = system: E. coli S30 extract (bacterial protein synthesis); experiment: E. coli S30 extract coupled transcription-translation luciferase assay (inhibition of bacterial protein synthesis); assay type: biochemical; settings: read-out: S30 IC50 (μM/% inhib.)
# In short: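 Coupled transcription-translation in E. coli S30 circular-DNA extract expressing luciferase from pBESTluc, with 8-point 2-fold compound dilutions; 1 hour at 37 °C, stopped at 4 °C. Luminescence read; % inhibition versus no-inhibitor wells, no-DNA wells as background.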
# [2] = biological target: Rabbit Reticulocyte Lysate (eukaryotic protein synthesis); experiment: Rabbit reticulocyte lysate luciferase assay (inhibition of eukaryotic protein synthesis); assay type: biochemical; settings: read-out: Rabbit reticulocyte IC50 (μM/% inhib.)
# In short: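 In vitro translation of luciferase control RNA in nuclease-treated rabbit reticulocyte lysate with amino acid mixture, compounds in 2-fold serial dilution, 90 minutes at 30° C. Luminescence read after luciferase reagent; % inhibition relative to water no-inhibitor controls, with no-RNA background wells.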
# [3] = system: P. aeruginosa (Pa); experiment: Broth microdilution minimum inhibitory concentration (MIC), CLSI; assay type: cell-based; settings: Pseudomonas aeruginosa, read-out: Pa MIC + bicarb
# In short: (§1)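 Modified CLSI method: CAMHB (± bicarbonate 6.25/25 mM or 0-50% human serum), 8-point two-fold series, triplicates, 5×10^4 CFU/well.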
# [4] = system: A. baumannn (Ab); experiment: as above; assay type: cell-based; settings: read-out: Ab + bicarb MIC
# In short: as §1
# [5] = system: E. faecalis (Ef); experiment: as above; assay type: cell-based; settings: Enterococcus faecalis, read-out: Ef + bicarb MIC
# In short: as §1
# [6] = system: S. aureus (Sa); experiment: as above; assay type: cell-based; settings: Staphylococcus aureus, read-out: Sa + bicarb MIC
# In short: as §1
# [7] = system: E. coli (Ec); experiment: as above; assay type: cell-based; settings: Escherichia coli, read-out: E. coli + bicarb MIC
# In short: as §1
# [8] = growth medium with sodium bicarbonate
# [9] = A. baumannn, growth medium with sodium bicarbonate
# [10] = class by IC50 or % inhibition @ 1 μM
# [11] = growth medium supplemented with sodium bicarbonate
Compound,IC50 ([1]; % inhibition @ 1 μM),IC50 ([2]; % inhibition @ 1 μM),"MIC [3, 8]","MIC [4, 9]","MIC [5, 8]","MIC [6, 8]","MIC [7, 8]","IC50 [1, 10]","IC50 [2, 10]","MIC [3, 11]",MIC ([4]; Acinetobacter baumannii),"MIC [5, 11]","MIC [6, 11]","MIC [7, 11]"
CC(C)[C@@H](N)C(=O)N1CCN(C(=O)Nc2ccn(-c3ccc(CC(C)N4C[C@@H]5[C@@H](CN)[C@@H]5C4)cc3)c(=O)n2)CC1 (stereo partly drawn) [Compound 230],≥ 1 µM,≥ 1 µM,> 32 µg/mL,> 32 µg/mL,> 32 µg/mL,8 to 32 µg/mL,< 8 µg/mL,–,–,–,–,–,–,–
CC(C)(N)C(=O)N1CCN(C(=O)Nc2ccn(-c3cccc(CCN4CCC5(CC4)CC(N)C5)c3)c(=O)n2)CC1 [Compound 110],–,–,–,–,–,–,–,0.5 to 1 µM,≥ 1 µM,> 32 µg/mL,> 32 µg/mL,8 to 32 µg/mL,< 8 µg/mL,< 8 µg/mL
C[C@@H]1CN(C(=O)Nc2ccn(-c3ccc(CN4C[C@@H]5[C@@H](N)[C@@H]5C4)cc3)c(=O)n2)CCN1C(=O)[C@@](C)(N)CO [Compound 45],–,–,–,–,–,–,–,< 0.5 µM,≥ 1 µM,8 to 32 µg/mL,> 32 µg/mL,< 8 µg/mL,< 8 µg/mL,< 8 µg/mL
CC(C)(N)C(=O)N1CCN(C(=O)Nc2ccn(-c3ccc(CN4CCC5(CCNC5)C4)cc3)c(=O)n2)CC1 (stereo not drawn) [Compound 80],–,–,–,–,–,–,–,< 0.5 µM,≥ 1 µM,> 32 µg/mL,> 32 µg/mL,> 32 µg/mL,< 8 µg/mL,< 8 µg/mL
CC(C)(N)C(=O)N1CCN(C(=O)Nc2ccn(-c3ccc(CN4C[C@@H]5[C@@H](N)[C@@H]5C4)cc3)c(=O)n2)CC1 [Compound 3],–,–,–,–,–,–,–,< 0.5 µM,≥ 1 µM,8 to 32 µg/mL,< 8 µg/mL,< 8 µg/mL,< 8 µg/mL,< 8 µg/mL
CC(Cc1ccc(-n2ccc(NC(=O)N3CCN(C(=O)C(C)(C)N)CC3)nc2=O)cc1)N1CC2CCC(N)C2C1 (stereo not drawn) [Compound 214],< 0.5 µM,≥ 1 µM,> 32 µg/mL,> 32 µg/mL,< 8 µg/mL,< 8 µg/mL,< 8 µg/mL,–,–,–,–,–,–,–
NC1CC2(CCN(C(=O)Nc3ccn(-c4ccc(CN5C[C@@H]6[C@@H](N)[C@@H]6C5)cc4)c(=O)n3)CC2)C1 [Compound 49],–,–,–,–,–,–,–,< 0.5 µM,≥ 1 µM,> 32 µg/mL,> 32 µg/mL,8 to 32 µg/mL,< 8 µg/mL,< 8 µg/mL
NC[C@@H]1[C@H]2CN(CCc3ccc(-n4ccc(NC(=O)N5CCC6(CCNC6)C5)nc4=O)cc3)C[C@@H]12 (stereo partly drawn) [Compound 145],–,–,–,–,–,–,–,≥ 1 µM,≥ 1 µM,> 32 µg/mL,> 32 µg/mL,> 32 µg/mL,8 to 32 µg/mL,< 8 µg/mL
CC(C)(N)C1CN(C(=O)Nc2ccn(-c3ccc(CN4C[C@@H]5[C@@H](N)[C@@H]5C4)cc3)c(=O)n2)CCO1 (stereo partly drawn) [Compound 56],–,–,–,–,–,–,–,≥ 1 µM,≥ 1 µM,> 32 µg/mL,> 32 µg/mL,> 32 µg/mL,> 32 µg/mL,8 to 32 µg/mL
NCC1CCN(C(=O)Nc2ccn(-c3ccc(CN4C[C@@H]5[C@@H](N)[C@@H]5C4)cc3)c(=O)n2)CC1 [Compound 248],≥ 1 µM,≥ 1 µM,> 32 µg/mL,> 32 µg/mL,> 32 µg/mL,> 32 µg/mL,> 32 µg/mL,–,–,–,–,–,–,–
CC(C)(N)C(=O)N1CCN(C(=O)Nc2ccn(-c3ccc(CCN4CCC5CC5(N)C4)c(C(F)(F)F)c3)c(=O)n2)CC1 (stereo not drawn) [Compound 103],–,–,–,–,–,–,–,0.5 to 1 µM,≥ 1 µM,> 32 µg/mL,> 32 µg/mL,8 to 32 µg/mL,8 to 32 µg/mL,8 to 32 µg/mL
CC(Cc1ccc(-n2ccc(NC(=O)N3CCN(C(=O)C(C)(C)N)CC3)nc2=O)cc1F)NC1CC2(CC(N)C2)C1 (stereo not drawn) [Compound 192],≥ 1 µM,≥ 1 µM,> 32 µg/mL,> 32 µg/mL,< 8 µg/mL,< 8 µg/mL,< 8 µg/mL,–,–,–,–,–,–,–
CC(Cc1ccc(-n2ccc(NC(=O)N3CCN(C(=O)C(C)(C)N)CC3)nc2=O)cc1C(F)(F)F)N1C[C@@H]2[C@@H](CN)[C@@H]2C1 (stereo partly drawn) [Compound 208],< 0.5 µM,≥ 1 µM,> 32 µg/mL,8 to 32 µg/mL,< 8 µg/mL,< 8 µg/mL,< 8 µg/mL,–,–,–,–,–,–,–
CC(C)(N)C(=O)N1CCN(C(=O)Nc2ccn(-c3ccc(CCN4CC5CC5(CN)C4)c(F)c3)c(=O)n2)CC1 (stereo not drawn) [Compound 123],–,–,–,–,–,–,–,< 0.5 µM,≥ 1 µM,> 32 µg/mL,> 32 µg/mL,< 8 µg/mL,< 8 µg/mL,< 8 µg/mL
CC(C)(N)C(=O)N1CCN(C(=O)Nc2ccn(-c3ccc(C[C@H](N)C(=O)N4C[C@@H]5[C@@H](CN)[C@@H]5C4)cc3)c(=O)n2)CC1 [Compound 182],≥ 1 µM,≥ 1 µM,> 32 µg/mL,> 32 µg/mL,> 32 µg/mL,> 32 µg/mL,> 32 µg/mL,–,–,–,–,–,–,–
NC[C@@H]1[C@H]2CN(CCc3ccc(-n4ccc(NC(=O)N5CCC6(CC5)CC(N)C6)nc4=O)cc3)C[C@@H]12 [Compound 146],–,–,–,–,–,–,–,≥ 1 µM,≥ 1 µM,8 to 32 µg/mL,8 to 32 µg/mL,< 8 µg/mL,< 8 µg/mL,< 8 µg/mL
CC(C)(N)C(=O)N1CCN(C(=O)Nc2ccn(-c3ccc(CCN4C[C@@H]5[C@@H](CN)[C@@H]5C4)c(F)c3)c(=O)n2)CC1 [Compound 127],–,–,–,–,–,–,–,< 0.5 µM,≥ 1 µM,8 to 32 µg/mL,> 32 µg/mL,8 to 32 µg/mL,8 to 32 µg/mL,< 8 µg/mL
CC(C)(N)C(=O)N1CCN(C(=O)Nc2ccn(-c3ccc(CCN4CCC5(CCNC5)C4)cc3)c(=O)n2)CC1 (stereo not drawn) [Compound 161],–,–,–,–,–,–,–,< 0.5 µM,≥ 1 µM,> 32 µg/mL,> 32 µg/mL,8 to 32 µg/mL,< 8 µg/mL,< 8 µg/mL
NCCC1CN(C(=O)Nc2ccn(-c3ccc(CN4C[C@@H]5[C@@H](N)[C@@H]5C4)cc3)c(=O)n2)C1 [Compound 255],0.5 to 1 µM,≥ 1 µM,> 32 µg/mL,> 32 µg/mL,> 32 µg/mL,> 32 µg/mL,8 to 32 µg/mL,–,–,–,–,–,–,–
CC(C)(N)C(=O)N1CCN(C(=O)Nc2ccn(-c3ccc(CN4CC[C@H]5[C@H](N)[C@H]5C4)cc3)c(=O)n2)CC1 [Compound 30],–,–,–,–,–,–,–,< 0.5 µM,≥ 1 µM,8 to 32 µg/mL,8 to 32 µg/mL,< 8 µg/mL,< 8 µg/mL,< 8 µg/mL
CC(C)(N)C(=O)N1CCN(C(=O)Nc2ccn(-c3ccc(CCN4CC5CC5(CN)C4)cc3)c(=O)n2)CC1 (stereo not drawn) [Compound 117],–,–,–,–,–,–,–,< 0.5 µM,≥ 1 µM,8 to 32 µg/mL,8 to 32 µg/mL,< 8 µg/mL,< 8 µg/mL,< 8 µg/mL
